According to US10065931B2, “Quinazolin crotyl compound dimaleate crystals and preparation methods and uses thereof” (HANGZHOU HUADONG MEDICINE GROUP BIOPHARMACEUTICAL CO., LTD., priority 2015, dated 2018):
Converted amounts (≈) assume the structure as drawn. Read-outs that look alike come from different tables or passages of the source.

Experiments:
Type in all cases: physicochemical
[1] = Storage stability test, chemical content by HPLC; conditions: for Initial content: before storage; for Chemical stability, 25° C./60% R.H. One week / Chemical stability, 40° C./75% R.H. One week: chemical content as % of initial content; for Chemical content after storage (in words): one week, 40° C./75% R.H.
[2] = Competition of stability between crystal form K and crystal form G in water (XRPD); conditions: 12 hours stirring, room temperature
Protocol: After 12 hours of stirring under room temperature, the solid was separated by centrifugation and was subjected to XRPD test, the results are shown in FIG. 20.

[3] = Storage stability test, physical stability by XRPD; conditions: for XRPD pattern after storage (physical stability): one week of storage, 25° C./60% R.H. and 40° C./75% R.H.
Protocol: In the following examples, the XRPD of the crystal form was determined using a PANalytical Empyrean X-ray powder diffraction analyzer, the parameters are summarized in Table 1.

[4] = Second set of competition of stabilities between crystal form K and crystal form F (solid mixture stored 10 days, XRPD)
Description: Then two samples were placed in different environments for 10 days and were subjected to XRPD test respectively.

[5] = Solubility in water, FaSSIF, FeSSIF and SGF
Protocol: Wherein FaSSIF and FeSSIF were prepared according to the method described in the literature: Study of a Standardized Taurocholate-Lecithin Powder for Preparing the Biorelevant Media FeSSIF and FaSSIF (Kloefer, B., van Hoogevest, P., Moloney, R., Kuentz, M., Leigh, M. L., & Dressman, J. (2010). Dissolution Technologies, August 17(3), 6-14. SGF was prepared according to the method described in the literature Albendazole Generics-A Comparative In Vitro Study (Galia E., Horton, J and Dressman J. (1999) Pharmaceutical Research, 16 (12), […]). The test results are summarized in Table 6.

[6] = First set of competition of stabilities between crystal form K and crystal form F (suspension, different water activities, XRPD); conditions: room temperature
Protocol: After 12 hours of stirring under room temperature, the solid was isolated by centrifugation and the XRPD thereof was tested.

Structure (SMILES): CN(C)C/C=C/C(=O)Nc1cc2c(Nc3ccc(F)c(Cl)c3)ncnc2cc1OC(F)F [Crystal form E]
- Initial content [1]: 100.0%
- Chemical stability, 25° C./60% R.H. One week [1]: 99.8%
- Chemical stability, 40° C./75% R.H. One week [1]: 99.5%

Structure (SMILES): CN(C)C/C=C/C(=O)Nc1cc2c(Nc3ccc(F)c(Cl)c3)ncnc2cc1OC(F)F [Crystal form G]
- Initial content [1]: 100.0%
- Chemical stability, 25° C./60% R.H. One week [1]: 99.8%
- Chemical stability, 40° C./75% R.H. One week [1]: 99.6%
- Chemical content after storage (in words) [1]: stable
- Crystal form after competition with crystal form K in saturated water solution [2]: converted to crystal form K

Structure (SMILES): CN(C)C/C=C/C(=O)Nc1cc2c(Nc3ccc(F)c(Cl)c3)ncnc2cc1OC(F)F [Crystal form F]
- XRPD pattern after storage (physical stability) [3]: basically the same
- Initial content [1]: 100.0%
- Chemical stability, 25° C./60% R.H. One week [1]: 99.8%
- Chemical stability, 40° C./75% R.H. One week [1]: 99.7%
- Chemical content after storage (in words) [1]: stable
- Crystal form after storage of crystal form F mixed with about 1% crystal form K ([4]; 25° C., 60% R.H.): form F
- Crystal form after storage of crystal form F mixed with about 1% crystal form K ([4]; 25° C., 60% R.H., listed as crystal form F): did not change
- Crystal form after storage of crystal form F mixed with about 1% crystal form K ([4]; 40° C., 75% R.H.): form K
- Crystal form after storage of crystal form F mixed with about 1% crystal form K ([4]; 40° C., 75% R.H., listed as crystal form F): converted to the crystal form K
- Solubility ([5]; FaSSIF, pH 6.5): 2440 µg/mL (≈ 5.24 mM)
- Solubility ([5]; FeSSIF, pH 5.0): 570 µg/mL (≈ 1.22 mM)
- Solubility ([5]; SGF, pH 1.8): >10650 µg/mL
- Solubility ([5]; Water, pH 7.4): >9810 µg/mL

Structure (SMILES): CN(C)C/C=C/C(=O)Nc1cc2c(Nc3ccc(F)c(Cl)c3)ncnc2cc1OC(F)F [Free base]
- Long-term storage stability (in words) [3]: poor
- XRPD pattern after storage (physical stability) [3]: changed significantly
- Initial content [1]: 100.0%
- Chemical stability, 25° C./60% R.H. One week [1]: 99.8%
- Chemical stability, 40° C./75% R.H. One week [1]: 94.8%
- Chemical stability, 40° C./75% R.H. One week ([1]; listed as free base): 94.8%
- Water solubility (in words) [5]: poor
- Solubility ([5]; FaSSIF, pH 6.5): 30 µg/mL (≈ 0.0644 mM)
- Solubility ([5]; FeSSIF, pH 5.0): 100 µg/mL (≈ 0.215 mM)
- Solubility ([5]; SGF, pH 1.8, simulated gastric fluid, thermodynamic from solid, SGF, pH 1.8, read-out: Solubility): 8370 µg/mL (≈ 18 mM)
- Solubility ([5]; Water, pH 7.4): <2.5 µg/mL

Structure (SMILES): CN(C)C/C=C/C(=O)Nc1cc2c(Nc3ccc(F)c(Cl)c3)ncnc2cc1OC(F)F [Crystal form K]
- XRPD pattern after storage (physical and chemical stability) ([3]; 6 months of storage, 40° C./75% R.H.): basically the same
- XRPD pattern after storage (physical stability) [3]: basically the same
- Initial content [1]: 100.0%
- Chemical stability, 25° C./60% R.H. One week [1]: 99.9%
- Chemical stability, 40° C./75% R.H. One week [1]: 99.8%
- Chemical content after storage (in words) [1]: stable
- Water activity at which crystal form K is thermodynamically more stable than crystal form F [6]: greater than or equal to 0.15
- Crystal form after competition with crystal form F ([6]; water activity 0.00, IPA, 12 hours stirring): Crystal form F
- Crystal form after competition with crystal form F ([6]; water activity 0.15, IPA:H2O 99:1, 12 hours stirring): Crystal form K
- Crystal form after competition with crystal form F ([6]; water activity 0.39, IPA:H2O 24:1, 12 hours stirring): Crystal form K
- Crystal form after competition with crystal form F ([6]; water activity 0.60, ACN:H2O 19:1, 12 hours stirring): Crystal form K
- Crystal form after competition with crystal form F ([6]; water activity 0.80, ACN:H2O 9:1, 12 hours stirring): Crystal form K
- Solubility ([5]; FaSSIF, pH 6.5): 8360 µg/mL (≈ 17.9 mM)
- Solubility ([5]; FeSSIF, pH 5.0): 1240 µg/mL (≈ 2.66 mM)
- Solubility ([5]; SGF, pH 1.8): >9950 µg/mL
- Solubility ([5]; Water, pH 7.4): >10020 µg/mL
